“And” between values parts separate entries of the source, which are not always exact repeats. Equal values may be shown once. Where a name gives a salt, the structure may show the parent alone.
Key:
[1] = molecular target: DNMT1 (Homo sapiens, UniProt P26358); test: Selective depletion of DNMT1 by Western blot in treated HCT116 cells; type: cell-based; design: Protein extracts (equivalent to 100 μg) were isolated from HCT116 cells; endogenous in cells; host or cells: HCT116; details: for % DNMT1 protein level remaining at 5 µM: HCT-116, 5 μM; for % DNMT1 protein level remaining at 10 µM: HCT-116, 10 μM
DNMT1, sequence (P26358 whole entry): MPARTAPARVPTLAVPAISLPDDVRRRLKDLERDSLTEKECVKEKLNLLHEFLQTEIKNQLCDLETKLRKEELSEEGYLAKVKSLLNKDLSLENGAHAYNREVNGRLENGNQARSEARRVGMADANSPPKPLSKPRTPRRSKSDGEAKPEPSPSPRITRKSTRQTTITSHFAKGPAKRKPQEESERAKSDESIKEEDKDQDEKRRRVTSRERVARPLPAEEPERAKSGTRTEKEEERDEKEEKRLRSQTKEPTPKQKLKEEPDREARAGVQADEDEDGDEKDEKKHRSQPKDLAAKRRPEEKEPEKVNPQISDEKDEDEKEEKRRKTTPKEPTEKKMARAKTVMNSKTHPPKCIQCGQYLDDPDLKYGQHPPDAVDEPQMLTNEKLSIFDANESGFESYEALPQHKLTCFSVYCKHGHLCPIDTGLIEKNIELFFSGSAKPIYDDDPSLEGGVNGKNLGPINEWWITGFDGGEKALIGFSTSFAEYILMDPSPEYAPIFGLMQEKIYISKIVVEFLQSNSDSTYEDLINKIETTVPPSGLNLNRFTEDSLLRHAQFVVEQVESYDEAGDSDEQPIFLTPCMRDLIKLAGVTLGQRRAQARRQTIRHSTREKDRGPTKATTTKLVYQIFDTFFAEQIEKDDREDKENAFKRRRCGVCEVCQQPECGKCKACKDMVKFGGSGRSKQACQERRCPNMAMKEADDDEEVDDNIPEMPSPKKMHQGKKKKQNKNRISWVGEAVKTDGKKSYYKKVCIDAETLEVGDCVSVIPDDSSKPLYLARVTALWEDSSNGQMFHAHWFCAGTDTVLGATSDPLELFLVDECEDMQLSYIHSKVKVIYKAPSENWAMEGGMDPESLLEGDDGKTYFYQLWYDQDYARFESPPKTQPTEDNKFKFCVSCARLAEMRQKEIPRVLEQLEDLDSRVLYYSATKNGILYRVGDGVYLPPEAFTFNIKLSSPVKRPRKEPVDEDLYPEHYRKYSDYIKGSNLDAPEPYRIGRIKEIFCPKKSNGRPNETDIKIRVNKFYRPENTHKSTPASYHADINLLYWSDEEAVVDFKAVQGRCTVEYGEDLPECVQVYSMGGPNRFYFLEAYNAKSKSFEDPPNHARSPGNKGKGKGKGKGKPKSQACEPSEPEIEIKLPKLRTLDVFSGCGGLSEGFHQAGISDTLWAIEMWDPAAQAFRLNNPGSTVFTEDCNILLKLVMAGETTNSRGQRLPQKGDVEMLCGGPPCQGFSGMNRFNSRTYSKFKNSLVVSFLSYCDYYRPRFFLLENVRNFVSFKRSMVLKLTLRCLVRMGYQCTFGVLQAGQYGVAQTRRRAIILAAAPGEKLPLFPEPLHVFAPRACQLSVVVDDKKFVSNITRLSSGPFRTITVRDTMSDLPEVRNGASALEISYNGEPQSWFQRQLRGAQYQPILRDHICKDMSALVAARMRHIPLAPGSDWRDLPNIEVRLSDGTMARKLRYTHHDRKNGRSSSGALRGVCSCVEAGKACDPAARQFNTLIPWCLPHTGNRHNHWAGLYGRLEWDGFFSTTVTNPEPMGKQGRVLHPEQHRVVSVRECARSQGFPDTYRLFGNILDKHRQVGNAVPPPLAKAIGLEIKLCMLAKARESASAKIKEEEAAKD
Description: Biol. 2005, 11, 4727-41.]. For DNMT1, commercially available antibodies from Santa Cruz or New England Biolabs were used.

| % DNMT1 protein level remaining at 5 µM [1] | % DNMT1 protein level remaining at 10 µM [1] | melting point | SMILES |
| --- | --- | --- | --- |
| 25% | 15% | 170 to 173 °C | CN(C)c1ccc2nccc(Nc3ccc(NC(=O)c4cccc(Nc5cc[n+](C)cc5)c4)cc3)c2c1 [Cpd. OO1, 6-(dimethylamino)-4-[4-({3-[(1-methyl-4-pyridiniumyl)amino]benzoyl}amino)anilino]-quinolinium dichloride] |
|  |  | > 300 °C | Cc1cc(Nc2cccc(C(=O)Nc3ccc(Nc4ccnc5ccccc45)cc3)c2)nc(N)n1 (as salt: hydrochloride) [Cpd. FF1, 3-[(2-amino-6-methyl-4-pyrimidinyl)amino]-N-[4-(4-quinolinylamino)phenyl]benzamide dihydrochloride] |
| 50% | 95% | 156 °C (dec.) | CN(C)c1ccc2nccc(Nc3ccc(NC(=O)c4ccc(Nc5cc[n+](C)cc5)cc4)cc3)c2c1 [Cpd. OO2, 6-(Dimethylamino)-4-[4-({4-[(1-methyl-4-pyridiniumyl)amino]benzoyl}amino)-anilino]quinolinium dichloride] |
|  |  | > 300 °C | Cc1cc(Nc2ccc(C(=O)Nc3ccc(Nc4ccnc5cc([N+](=O)[O-])ccc45)cc3)cc2)nc(N)n1 (as salt: hydrochloride) [Cpd. GG5, 4-[(2-Amino-6-methyl-4-pyrimidinyl)amino]-N-{4-[(7-nitro-4-quinolinyl)amino]phenyl}benzamide dihydrochloride] |
|  |  | 257 to 262 °C and 257 to 261 °C | Cc1cc(Nc2ccc(C(=O)Nc3ccc(Nc4ccnc5cc(N)ccc45)cc3)cc2)nc(N)n1 (as salt: hydrochloride) [Cpd. GG2, 4-[(2-Amino-6-methyl-4-pyrimidinyl)amino]-N-{4-[(7-amino-4-quinolinyl)amino]phenyl}benzamide dihydrochloride] |
|  |  | 280 to 284 °C | Cc1cc(Nc2cccc(C(=O)Nc3ccc(Nc4ccnc5ccc(N)cc45)cc3)c2)nc(N)n1 (as salt: hydrochloride) [RR3, 3-[(2-Amino-6-methyl-4-pyrimidinyl)amino]-N-{4-[(6-amino-4-quinolinyl)amino]phenyl}benzamide dihydrochloride] |
|  |  | > 300 °C | Nc1cc(Nc2cccc(C(=O)Nc3ccc(Nc4ccnc5ccc([N+](=O)[O-])cc45)cc3)c2)nc(N)n1 (as salt: hydrochloride) [Cpd. RR1, 3-[(2,6-diamino-4-pyrimidinyl)amino]-N-{4-[(6-nitro-4-quinolinyl)amino]phenyl}benzamide dihydrochloride] |
|  |  | > 300 °C | Cc1cc(Nc2ccc(C(=O)Nc3ccc(Nc4ccnc5ccc(N)cc45)cc3)cc2)nc(N)n1 (as salt: hydrochloride) [Cpd. GG3, 4-[(2-amino-6-methyl-4-pyrimidinyl)amino]-N-{4-[(6-amino-4-quinolinyl)amino]phenyl}benzamide dihydrochloride] |
|  |  | > 300 °C | Nc1cc(Nc2cccc(C(=O)Nc3ccc(Nc4ccnc5ccccc45)cc3)c2)nc(N)n1 (as salt: hydrochloride) [Cpd. FF2, 3-[(2,6-Diamino-4-pyrimidinyl)amino]-N-[4-(4-quinolinylamino)-phenyl]benzamide dihydrochloride] |

Further lines, the compound ahead of its results:

| SMILES | % DNMT1 protein level remaining at 5 µM [1] | % DNMT1 protein level remaining at 10 µM [1] | melting point |
| --- | --- | --- | --- |
| Cc1cc(Nc2ccc(NC(=O)c3ccc(Nc4ccnc5ccc(Cl)cc45)cc3)cc2)nc(N)n1 [Cpd. LL, N-[4-(2-amino-6-methylpyrimidin-4-ylamino)phenyl]-4-(6-chloroquinolin-4-ylamino)benzamide] | 70% | 15% | 250 to 254 °C |
| C/C(=N\N=C(N)N)c1ccc(C(=O)Nc2ccc(Nc3ccnc4ccc(N(C)C)cc34)cc2)cc1 (as salt: hydrochloride) [Cpd. PP, 4-[(1E)-N-(diaminomethylene)ethanehydrazonoyl]-N-(4-{[6-(dimethylamino)-4-quinolinyl]amino}phenyl)benzamide dihydrochloride] |  |  | > 300 °C |
| C[n+]1ccc(Nc2ccc(C(=O)Nc3ccc(Nc4ccnc5ccc(N)cc45)cc3)cc2)cc1 (as salt: chloride) [Cpd. N, 4-[4-({4-[(6-amino-4-quinolinyl)amino]anilino}carbonyl)anilino]-1-methylpyridinium chloride] |  |  | > 300 °C |
| C[n+]1ccc(Nc2cccc(NC(=O)c3ccc(Nc4ccnc5ccccc45)cc3)c2)cc1 (as salt: chloride) [Cpd. A, 1-methyl-4-(3-{[4-(4-quinolinylamino)benzoyl]amino}anilino)pyridinium chloride] |  |  | 253 to 257 °C |
| Cc1cc(Nc2ccc(C(=O)Nc3ccc(Nc4ccnc5ccc(N(C)C)cc45)cc3)cc2)nc(N)n1 (as salt: hydrochloride) [Cpd. HH, 4-[(2-amino-6-methyl-4-pyrimidinyl)amino]-N-(4-{[6-(dimethylamino)-4-quinolinyl]amino}phenyl)benzamide dihydrochloride] |  |  | > 300 °C |
| C[n+]1ccc(Nc2cccc(NC(=O)c3ccc(Nc4ccnc5cc([N+](=O)[O-])ccc45)cc3)c2)cc1 (as salt: chloride) [Cpd. R, 1-methyl-4-[3-({4-[(7-nitro-4-quinolinyl)amino]benzoyl}amino)anilino]pyridinium chloride] |  |  | 303 °C (dec.) |
| C[n+]1ccc(Nc2ccc(NC(=O)c3ccc(Nc4ccnc5ccccc45)cc3)cc2)cc1 (as salt: hydrochloride) [Cpd. B, 1-methyl-4-(4-(4-(quinolin-4-ylamino)benzamido)phenylamino)pyridinium chloride hydrochloride] |  |  | > 300 °C |
| C[n+]1ccc(Nc2ccc(NC(=O)c3ccc(Nc4ccnc5cc(N)ccc45)cc3)cc2)cc1 [Cpd. W, 1-methyl-4-[4-(4-{7-aminoquinolin-4-ylamino}benzamido)-phenylamino]pyridinium dichloride] | 45% | 75% | 242 to 245 °C |
| C[n+]1ccc(Nc2cccc(NC(=O)c3ccc(Nc4ccnc5ccc([N+](=O)[O-])cc45)cc3)c2)cc1 (as salt: chloride) [Cpd. F, 1-methyl-4-(3-{[4-(6-nitro-4-quinolinylamino)benzoyl]amino}anilino)pyridinium chloride] |  |  | 273 to 277 °C |
| Cc1cc(Nc2ccc(NC(=O)c3ccc(Nc4ccnc5c(F)c(F)c(F)cc45)cc3)cc2)nc(N)n1 (as salt: hydrochloride) [Cpd. KK, n-[4-(2-amino-6-methylpyrimidin-4-ylamino)phenyl]-4-(6,7,8-trifluoroquinolin-4-ylamino)benzamide dihydrochloride] |  |  | > 280 °C |

From US7939546B2, “Quinoline derivatives for modulating DNA methylation” (SuperGen, Inc., priority 2007, dated 2011)
